Some test systems named below: 786-0; A498; BT-549; CAKI-1; CCRF-CEM; DU-145; EKVX; HL-60; K562; KM12; MOLT-4; Malme-3M; NCI-H460; OVCAR-5; SF-295; SK-MEL-2; SK-MEL-5; SK-OV-3; SNB-19; UO-31.
Holding throughout (assay): inhibition of tumour cell growth, NCI panel, 48 h

Each structure is given as a SMILES string.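 Grown in 96-well plates, cells were treated for 48 hours with each compound at five concentrations. Insufficient inhibition: endpoint recorded as highest concentration tested. Here, GI50 denotes the concentration required for 50% inhibition of growth.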 Activity calls are given as the source filed them. Cut-off read from the data, not from the text of the source: active = GI50 up to about 1.1 µM and inactive = higher.

Turning to `O=C(O)c1cccc(CC(Br)C(=O)O)c1` (stereo not given), the GI50 with 786-0, in the assay on A498, in the assay on BT-549, with CAKI-1, with CCRF-CEM and in the assay on DU-145 was > 100 µM (inactive) throughout. Besides, the GI50 in the assay on EKVX, in the assay on HL-60, with K562, in the assay on KM12, in the assay on MOLT-4 and in the assay with Malme-3M was > 100 µM (inactive) each time. For the same compound, the GI50 with NCI-H460, in the assay with OVCAR-5, in the assay with SF-295, with SK-MEL-2, in the assay on SK-MEL-5 and with SK-OV-3 was > 100 µM (inactive) throughout. For the same compound, the GI50 in the assay with SNB-19 and in the assay on UO-31 was > 100 µM (inactive) throughout.

On to `CCc1oc2ccccc2c1C(=O)c1cc(Br)c(O)c(Br)c1` [BENZBROMARONE], for which the GI50 in the assay on 786-0 is 29.9 µM (inactive); in the assay with A498, 20.5 µM (inactive); in the assay on BT-549, 28.2 µM (inactive); in the assay on CAKI-1, 36.1 µM (inactive); in the assay with CCRF-CEM it was 26.4 µM (inactive); with DU-145 it was 43.3 µM (inactive). Also, the GI50 was 30.7 µM (inactive) with EKVX; 13.6 µM (inactive) in the assay on HL-60; 30.9 µM (inactive) in the assay with K562; 20.7 µM (inactive) in the assay with KM12; 26.9 µM (inactive) in the assay on MOLT-4; 19.1 µM (inactive) in the assay with Malme-3M. Further, the GI50 was 18.4 µM (inactive) in the assay on NCI-H460; 21.4 µM (inactive) in the assay on OVCAR-5; 31.8 µM (inactive) in the assay with SF-295; 19.8 µM (inactive) in the assay with SK-MEL-2; 17.4 µM (inactive) in the assay on SK-MEL-5; 37.8 µM (inactive) with SK-OV-3. The GI50 is 36.1 µM (inactive) in the assay on SNB-19 and 21.6 µM (inactive) in the assay with UO-31.

With `Cn1c2ccccc2n2c3ncccc3/c(=N/CCCC(=O)O)c(C#N)c12`, the GI50 in the assay with 786-0, in the assay on A498, with BT-549, in the assay on CAKI-1, in the assay with CCRF-CEM and in the assay with DU-145 was > 100 µM (inactive) throughout. Besides, the GI50 in the assay with EKVX, in the assay on HL-60, with K562, in the assay with KM12, with MOLT-4 and in the assay with Malme-3M was > 100 µM (inactive) each time. In addition, the GI50 with NCI-H460, with OVCAR-5, in the assay on SF-295, in the assay with SK-MEL-2, with SK-MEL-5 and in the assay on SK-OV-3 was > 100 µM (inactive) throughout. The GI50 with SNB-19 and in the assay on UO-31 was > 100 µM (inactive) in each case.

With `COC1=NC(NC2OCC(O)C(O)C2O)=C(NC(C)=O)CN1C` (stereo not given), the GI50 in the assay with 786-0, in the assay with A498, with BT-549, in the assay with CAKI-1, in the assay on CCRF-CEM and in the assay with DU-145 was > 100 µM (inactive) each time. The GI50 in the assay on EKVX, in the assay on HL-60, in the assay with K562, with KM12, with MOLT-4 and in the assay with Malme-3M was > 100 µM (inactive) in each case. Besides, the GI50 in the assay on NCI-H460, with OVCAR-5, in the assay on SF-295, in the assay with SK-MEL-2, in the assay on SK-MEL-5 and in the assay with SK-OV-3 was > 100 µM (inactive) throughout. In addition, the GI50 in the assay on SNB-19 and in the assay on UO-31 was > 100 µM (inactive) each time.

Regarding `CCn1c2ccc(C(=O)CCCN3CCCCC3)cc2c2cc(C(=O)CCCN3CCCCC3)ccc21`, the GI50 in the assay on 786-0 was 0.938 µM (active); with A498, 5.7 µM (inactive); with BT-549, 16.9 µM (inactive); in the assay with CAKI-1 it was 3.48 µM (inactive); with CCRF-CEM it was 2.4 µM (inactive); in the assay with DU-145 it was 5.33 µM (inactive). The GI50 was 4.84 µM (inactive) in the assay on EKVX; 13.2 µM (inactive) in the assay on HL-60; 2.97 µM (inactive) in the assay with K562; 1.98 µM (inactive) in the assay with KM12; 0.524 µM (active) in the assay on MOLT-4; 6.85 µM (inactive) with Malme-3M. The GI50 in the assay on NCI-H460 is 0.998 µM (active); in the assay with OVCAR-5, 6.95 µM (inactive); in the assay on SF-295, 2.43 µM (inactive); in the assay on SK-MEL-2, 1.78 µM (inactive); in the assay with SK-MEL-5, 1.56 µM (inactive); in the assay on SK-OV-3, 3.43 µM (inactive). Further, the figures for the GI50 in the assay with SNB-19 and in the assay with UO-31 were 2.58 µM (inactive) and 5.32 µM (inactive), respectively.

Consider `COC12C(COC(=O)NCCO)C3=C(C(=O)C(C)=C(N)C3=O)N1CC1NC12` (stereo not given), for which the GI50 was 20.9 µM (inactive) with 786-0; 60.7 µM (inactive) with A498; 54.5 µM (inactive) in the assay on BT-549; 2.77 µM (inactive) in the assay with CAKI-1; 12.1 µM (inactive) in the assay with CCRF-CEM; 39.4 µM (inactive) in the assay with DU-145. For the same compound, the GI50 is > 264 µM (inactive) in the assay on EKVX; 58.9 µM (inactive) in the assay with HL-60; 103 µM (inactive) in the assay on K562; 69.3 µM (inactive) with KM12; 35.2 µM (inactive) in the assay on MOLT-4; 21.1 µM (inactive) with Malme-3M. The GI50 in the assay with NCI-H460 was 5.01 µM (inactive); in the assay with OVCAR-5, 28.7 µM (inactive); in the assay on SF-295 it was 6.62 µM (inactive); with SK-MEL-2, 30.9 µM (inactive); in the assay with SK-MEL-5 it was 14.2 µM (inactive); with SK-OV-3 it was 24.4 µM (inactive). In addition, the figures for the GI50 in the assay with SNB-19 and with UO-31 were 16.4 µM (inactive) and > 100 µM (inactive), respectively.

With `O=c1[nH]nc(-c2ccccc2)n1/N=C/c1ccc([N+](=O)[O-])o1`, the GI50 in the assay on 786-0 was 4.88 µM (inactive); in the assay with A498 it was 9.12 µM (inactive); in the assay on BT-549 it was 6 µM (inactive); with CAKI-1 it was 7.13 µM (inactive); in the assay on CCRF-CEM, 1.09 µM (active); in the assay with DU-145 it was 3.45 µM (inactive). Also, the GI50 with EKVX is 8.63 µM (inactive); with HL-60 it was 8.89 µM (inactive); in the assay with K562, 3.64 µM (inactive); with KM12 it was 6.65 µM (inactive); in the assay with MOLT-4 it was 0.962 µM (active); in the assay with Malme-3M, 4.26 µM (inactive). Moreover, the GI50 in the assay with NCI-H460 was 5.12 µM (inactive); in the assay on OVCAR-5, 10.4 µM (inactive); in the assay on SF-295, 10.4 µM (inactive); in the assay on SK-MEL-2, 5.21 µM (inactive); with SK-MEL-5, 14.8 µM (inactive); in the assay with SK-OV-3, 9.29 µM (inactive). The GI50 was 12.6 µM (inactive) with SNB-19 and 4.32 µM (inactive) with UO-31.

For the origin of these results see ChEMBL document CHEMBL1201862, “PubChem BioAssay data set” (2004).
